Laboratory results from patent US12018021B2 (UCB Biopharma SRL, priority 2018, dated 2024).

Each compound was assayed against IgE-Tb / sFcεRIα-Y131A-AF488 (Homo sapiens, UniProt P01854, N146Q/N252Q) (assay: IgE-Tb / sFcεRIα-Y131A-AF488 FRET assay (protocol for examples 234 to 501)). Details: examples 234 to 501: compound with IgE-Tb 30 minutes before sFcεRIα-Y131A-AF488, incubated 18 hours at room temperature; read-out: Y131A FRET IC50 range.
Format: binding
Outline: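 Read-out is the 520/490 nm emission ratio (337 nm excitation) after 18 h at room temperature, background subtracted, fitted four-parameter for IC50. Final reagents: 5 nM IgE-Tb, preincubated 30 min with compound (top typically 10 μM, 2% DMSO, 3-fold 10-point), plus 25 nM sFcεRIα-Y131A-AF488.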

Sequence of IgE-Tb / sFcεRIα-Y131A-AF488 (P01854 whole entry N146Q/N252Q): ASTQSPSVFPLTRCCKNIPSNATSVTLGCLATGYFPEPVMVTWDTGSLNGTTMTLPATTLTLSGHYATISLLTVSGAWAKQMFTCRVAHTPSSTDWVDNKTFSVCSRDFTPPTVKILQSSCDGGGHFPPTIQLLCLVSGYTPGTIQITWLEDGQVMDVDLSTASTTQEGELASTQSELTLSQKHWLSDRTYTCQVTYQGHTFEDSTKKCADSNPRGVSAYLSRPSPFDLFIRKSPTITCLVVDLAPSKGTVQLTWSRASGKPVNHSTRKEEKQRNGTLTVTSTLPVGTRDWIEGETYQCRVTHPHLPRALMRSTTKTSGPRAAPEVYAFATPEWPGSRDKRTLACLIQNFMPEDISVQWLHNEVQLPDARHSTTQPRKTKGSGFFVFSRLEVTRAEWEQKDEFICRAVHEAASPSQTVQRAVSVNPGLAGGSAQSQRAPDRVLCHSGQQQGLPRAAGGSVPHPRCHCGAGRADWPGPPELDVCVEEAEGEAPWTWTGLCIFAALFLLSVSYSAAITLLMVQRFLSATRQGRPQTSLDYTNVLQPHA

| Structure (SMILES) | IC50 [nM] |
| --- | --- |
| Cn1nc(OC(F)F)cc1Nc1nncn1[C@H]1CCc2sc(NC(=O)[C@H]3C[C@@H]3F)c(C(=O)NC[C@H]3C[C@@H](F)C3)c2C1 (single isomer, unassigned) [Example 377] | < 1000 |
| Cn1nc(OC(F)F)cc1Nc1nncn1[C@H]1CCc2sc(NC(=O)[C@H]3C[C@@H]3F)c(C(=O)NC[C@H]3C[C@H](F)C3)c2C1 (single isomer, unassigned) [Example 378] | < 1000 |
| Cn1nc(OC(F)F)cc1Nc1nncn1[C@H]1CCc2sc(NC(=O)[C@H]3C[C@@H]3F)c(C(=O)N[C@H]3C[C@H](F)C3)c2C1 (single isomer, unassigned) [Example 379] | < 1000 |
| Cn1nc(C(F)F)cc1Nc1nncn1[C@H]1CCc2sc(NC(=O)C3CC3)c(C(=O)NC[C@H]3CC3(F)F)c2C1 (single isomer, unassigned) [Example 382] | < 1000 |
| Cn1nc(C(F)F)cc1Nc1nncn1[C@H]1CCc2sc(NC(=O)C3CC3)c(C(=O)NC[C@@H]3CC3(F)F)c2C1 (single isomer, unassigned) [Example 383] | < 1000 |
| Cn1nc(C(F)F)cc1Nc1nncn1[C@H]1CCc2sc(NC(=O)C3CC3)c(C(=O)NC[C@@H]3CC34CC4)c2C1 (single isomer, unassigned) [Example 385] | < 1000 |
| Cn1nc(C(F)F)cc1Nc1nncn1[C@H]1CCc2sc(NC(=O)C3CC3)c(C(=O)NC[C@H]3CC34CC4)c2C1 (single isomer, unassigned) [Example 386] | < 1000 |
| Cn1nc(C(F)(F)F)cc1Nc1nncn1[C@H]1CCc2sc(NC(=O)[C@H]3C[C@H]3F)c(C(=O)N[C@@H]3CC34CC4)c2C1 (single isomer, unassigned) [Example 393] | < 1000 |
| Cn1nc(C(F)(F)F)cc1Nc1nncn1[C@H]1CCc2sc(NC(=O)[C@H]3C[C@H]3F)c(C(=O)N[C@H]3CC34CC4)c2C1 (single isomer, unassigned) [Example 394] | < 1000 |
| Cn1nc(C(F)(F)F)cc1Nc1nncn1[C@H]1CCc2sc(NC(=O)[C@H]3C[C@H]3F)c(C(=O)NC[C@H]3CC3(F)F)c2C1 (single isomer, unassigned) [Example 397] | < 1000 |
| Cn1nc(C(F)(F)F)cc1Nc1nncn1[C@H]1CCc2sc(NC(=O)[C@H]3C[C@H]3F)c(C(=O)NC[C@@H]3CC3(F)F)c2C1 (single isomer, unassigned) [Example 398] | < 1000 |
| Cn1nc(C(F)F)cc1Nc1nncn1[C@H]1CCc2sc(NC(=O)[C@H]3CC34CC4)c(C(=O)NC[C@@H]3CC3(F)F)c2C1 (single isomer, unassigned) [Example 409] | < 1000 |
| Cn1nc(C(F)F)cc1Nc1nncn1[C@H]1CCc2sc(NC(=O)[C@H]3CC34CC4)c(C(=O)NC[C@H]3CC3(F)F)c2C1 (single isomer, unassigned) [Example 410] | < 1000 |
| CCOC(=O)c1c(NC(=O)[C@H]2CC23CC3)sc2c1C[C@@H](n1cnnc1Nc1cc(C(F)F)nn1C)CC2 (single isomer, unassigned) [Example 417] | < 1000 |
| C[C@H]1c2c(sc(NC(=O)C3CC3)c2C(=O)NCC2CC2)CC[C@@H]1n1cnnc1Nc1cc(C(F)(F)F)nn1C (single isomer, unassigned) [Example 422, (4R*,5R*)-2-(cyclopropanecarbonylamino)-N-(cyclopropylmethyl)-4-methyl-5-[3-[[2-methyl-5-(trifluoromethyl)pyrazol-3-yl]amino]-1,2,4-triazol-4-yl]-4,5,6,7-tetrahydrobenzothiophene-3-carboxamide] | < 1000 |
| Cn1nc(OC(F)F)cc1Nc1nncn1[C@H]1CCc2sc(NC(=O)C3CC3)c(C(=O)NC[C@H]3CC3(F)F)c2C1 (single isomer, unassigned) [Example 459] | < 1000 |
| Cn1nc(OC(F)F)cc1Nc1nncn1[C@H]1CCc2sc(NC(=O)C3CC3)c(C(=O)NC[C@@H]3CC3(F)F)c2C1 (single isomer, unassigned) [Example 460] | < 1000 |
| COc1cc(Nc2nncn2[C@H]2CCc3sc(NC(=O)[C@H]4C[C@@H]4C)c(C(=O)NC[C@H]4CC4(F)F)c3C2)n(C)n1 (single isomer, unassigned) [Example 463] | < 1000 |
| COc1cc(Nc2nncn2[C@H]2CCc3sc(NC(=O)[C@H]4C[C@@H]4C)c(C(=O)NC[C@@H]4CC4(F)F)c3C2)n(C)n1 (single isomer, unassigned) [Example 464] | < 1000 |

| Structure (SMILES) | IC50 [nM] |
| --- | --- |
| Cn1nc(C(F)F)cc1Nc1nncn1[C@H]1CCc2sc(NC(=O)[C@H]3C[C@H](F)C3)c(C(=O)N[C@@H]3CC34CC4)c2C1 (single isomer, unassigned) [Example 469] | < 1000 |
| Cn1nc(C(F)F)cc1Nc1nncn1[C@H]1CCc2sc(NC(=O)[C@H]3C[C@H](F)C3)c(C(=O)N[C@H]3CC34CC4)c2C1 (single isomer, unassigned) [Example 470] | < 1000 |
| Cn1nc(C(F)F)cc1Nc1nncn1[C@H]1CCc2sc(NC(=O)[C@H]3C[C@H](F)C3)c(C(=O)NC[C@H]3C[C@H](F)C3)c2C1 (single isomer, unassigned) [Example 474] | < 1000 |
| Cn1nc(C(F)F)cc1Nc1nncn1[C@H]1CCc2sc(NC(=O)[C@H]3C[C@@H](F)C3)c(C(=O)NC[C@H]3C[C@H](F)C3)c2C1 (single isomer, unassigned) [Example 475] | < 1000 |
| Cn1nc(C(F)F)cc1Nc1nncn1[C@H]1CCc2sc(NC(=O)[C@H]3C[C@H](F)C3)c(C(=O)N[C@H]3C[C@H](F)C3)c2C1 (single isomer, unassigned) [Example 476] | < 1000 |
| Cn1nc(C(F)F)cc1Nc1nncn1[C@H]1CCc2sc(NC(=O)[C@H]3C[C@@H](F)C3)c(C(=O)N[C@H]3C[C@H](F)C3)c2C1 (single isomer, unassigned) [Example 477] | < 1000 |
| Cn1nc(OC(F)F)cc1Nc1nncn1[C@H]1CCc2sc(NC(=O)[C@H]3C[C@H](F)C3)c(C(=O)N[C@@H]3CC34CC4)c2C1 (single isomer, unassigned) [Example 484] | < 1000 |
| Cn1nc(OC(F)F)cc1Nc1nncn1[C@H]1CCc2sc(NC(=O)[C@H]3C[C@H](F)C3)c(C(=O)N[C@H]3CC34CC4)c2C1 (single isomer, unassigned) [Example 485] | < 1000 |
| Cn1nc(OC(F)F)cc1Nc1nncn1[C@H]1CCc2sc(NC(=O)[C@H]3C[C@H](F)C3)c(C(=O)NC[C@H]3CC3(F)F)c2C1 (single isomer, unassigned) [Example 488] | < 1000 |
| Cn1nc(C(F)F)cc1Nc1nncn1[C@H]1CCc2sc(NC(=O)C3CC3)c(C(=O)N[C@H]3CC34CC4)c2C1 (single isomer, unassigned) [Example 495] | < 1000 |
| Cn1nc(C(F)(F)F)cc1Nc1nncn1C1COc2sc(NC(=O)C3CC3)c(C(=O)NCC3CC3)c2C1 (single isomer, unassigned) [Example 501, (3R*)-6-(cyclopropanecarbonylamino)-N-(cyclopropylmethyl)-3-[3-[[2-methyl-5-(trifluoromethyl)pyrazol-3-yl]amino]-1,2,4-triazol-4-yl]-3,4-dihydro-2H-thieno[2,3-b]pyran-5-carboxamide (* or S)] | < 1000 |
| Cc1ccc(N2CC[C@H](Nc3nncn3[C@H]3CCc4sc(NC(=O)C5CC5)c(C(=O)NCC5CC5)c4C3)C2)nn1 [Example 240, (5S)-2-cyclopropaneamido-N-(cyclopropylmethyl)-5-(3-{[(35)-1-(6-methylpyridazin-3-yl)pyrrolidin-3-yl]amino}-4H-1,2,4-triazol-4-yl)-4,5,6,7-tetrahydro-1-benzothiophene-3-carboxamide] | < 1000 |
| O=C(NCC1CC1)c1c(NC(=O)C2CC2)sc2c1C[C@@H](n1cnnc1N[C@H]1CCN(c3cnccn3)C1)CC2 [Example 241, (5S)-2-(cyclopropanecarbonylamino)-N-(cyclopropylmethyl)-5-[3-[[(3S)-1-pyrazin-2-ylpyrrolidin-3-yl]amino]-1,2,4-triazol-4-yl]-4,5,6,7-tetrahydrobenzothiophene-3-carboxamide] | < 1000 |
| O=C1NCc2c(Nc3nncn3[C@H]3CCc4sc(NC(=O)C5CC5)c(C(=O)NCC5CC5)c4C3)cccc21 [Example 244, (5S)-2-cyclopropaneamido-N-(cyclopropylmethyl)-5-{3-[(1-oxo-2,3-dihydro-1H-isoindol-4-yl)amino]-4H-1,2,4-triazol-4-yl}-4,5,6,7-tetrahydro-1-benzothiophene-3-carboxamide] | < 1000 |
| O=C(NCC1CC1)c1c(NC(=O)C2CC2)sc2c1C[C@@H](n1cnnc1N[C@H]1CCN(c3ccc(F)nn3)C1)CC2 [Example 245, (5S)-2-(cyclopropanecarbonylamino)-N-(cyclopropylmethyl)-5-[3-[[(3S)-1-(6-fluoropyridazin-3-yl)pyrrolidin-3-yl]amino]-1,2,4-triazol-4-yl]-4,5,6,7-tetrahydrobenzothiophene-3-carboxamide] | < 1000 |
| O=C(NCC1CC1)c1c(NC(=O)C2CC2)sc2c1C[C@@H](n1cnnc1N[C@H]1CCN(c3ncccn3)C1)CC2 [Example 246] | < 1000 |
| COCCOC(=O)c1ncn([C@H]2CCc3sc(NC(=O)C4CC4)c(C(=O)NCC4CC4)c3C2)c1N [Example 247, 2-methoxyethyl 5-amino-1-[(5S)-2-(cyclopropanecarbonylamino)-3-(cyclopropylmethylcarbamoyl)-4,5,6,7-tetrahydro-1-benzothiophen-5-yl]imidazole-4-carboxylate] | < 1000 |
| Nc1c(C(=O)OCCN2CCOCC2)ncn1[C@H]1CCc2sc(NC(=O)C3CC3)c(C(=O)NCC3CC3)c2C1 [Example 248, 2-morpholin-4-ylethyl 5-amino-1-[(5S)-2-(cyclopropanecarbonylamino)-3-(cyclopropylmethylcarbamoyl)-4,5,6,7-tetrahydro-1-benzothiophen-5-yl]imidazole-4-carboxylate] | < 1000 |
